Measurements published in patent US12083123B2, “Method for the detection of drug-induced organ or tissue injury in IMPDH inhibitor treated patients” (University of Cincinnati, priority 2020, dated 2024).

Legend:
[1] = test system: mouse liver hepatocytes; experiment: Mouse study: liver histology and EM image analysis of MMF-treated vs untreated mice; format: in vivo
Method: The body weights of the mice were recoded every day. […] The rest of the mice were sacrificed on day 14 and a necropsy was performed on the surviving mice.
H&E and trichrome staining was performed on each liver sections from 3 MMF treated and 5 untreated mice at a CLIA-certified laboratory at CHLA.
Ultrastructural analysis was performed as described for human liver biopsies on the mouse liver tissue from the MMF treated and untreated mice. The EM images were captured digitally at the same magnification (18,000×). Thirty hepatocytes per mouse liver are selected randomly and the numbers of the mitochondria and lipid droplets were counted per hepatocytes using the digital images. In addition, the greatest dimensions of randomly selected 50 mitochondria per hepatocytes from each mouse were measured using an image analysis software, Cellsens® (Olympus, Tokyo, Japan).
The numbers of the mitochondria and the lipid droplets and the sizes of the mitochondria of the hepatocytes from MMF treated and untreated mice were compared by repeated measures mixed model analysis, with […] as a random effect and group as fixed, at a 0.005 significance level, using Prism8 software (Graphpad Software, San Diego, CA, USA).

[2] = test system: transplanted liver; experiment: Transplant liver biopsies (histology, EM, LFTs) of liver transplant recipients treated with MMF; format: in vivo, human
Method: One biopsy from a patient (Case 4) was performed for surveillance purpose. Ultrastructural analysis included obtaining a small portion of the liver biopsies and post-fixing in osmium tetroxide and embedded in epoxy resin. Ultra-thin sections were stained with uranyl acetate/lead citrate. Detailed evaluation was made using Morgagni transmission electron microscope (EM, FEI, Hillsboro, OR). 2 H&E (hematoxylin and eosin) and 5 special (1 each for PAS, PASD, reticulin, iron and trichrome) stained slides were used per biopsy. ACR was diagnosed and scored using the Rejection Activity Index (RAI), which included: 1) portal inflammation (score 1-3), 2) bile duct damage (score 1-3), and 3) venous endothelial inflammation (score 1-3). Each score was added (RAI) and the degree of ACR was scored as follows: RAI=0-9; <3: borderline/indeterminate ACR, 3-4: mild ACR, 5-7: moderate ACR and >7: severe ACR. (Banff; 1997). Nonspecific hepatocellular injury is often referred to “reactive changes”. Histologic features of “reactive changes” include enlarged hepatocytes with hydropic changes (expanded, pale to clear cytoplasm) and coarse eosinophilic granules (e.g. mega-mitochondria), and nuclei with anisonucleosis and bi- and multi-nucleation, cholestasis, steatosis and necrosis. Necrosis can range from single cell necrosis (acidophil bodies) to rarely broad necrosis with collapsed lobules.

[3] = test system: Kupffer cells; experiment: Human liver specimens from MMF-treated patients: macrophages in livers (Kupffer cells); format: in vivo
[4] = test system: hepatic Kupffer cells; experiment: Mouse model treated with MMF by oral gavage: light microscopy of tissues, Kupffer cells and IMPDH2 expression; format: in vivo; settings: MMF 120 mg/kg daily for over two weeks by oral gavage
Method: To further study the potential changes caused by MMF treatment, an animal model (mouse) was used and treated with MMF 120 mg/kg daily for over two weeks by oral gavage. As a control, another group of mice was treated with the vehicle used for MMF. Among the issues investigated (e.g., liver, kidney, ovary, brain, white adipose and brown adipose tissues, pancreas, stomach, lung), a major change that is easily detected by light microscope (400× magnification) is pointed on hepatic Kupffer cells. […] In addition, IMPDH2 expression levels within the Kupffer cells were increased compared to MMF-untreated mouse liver.

[5] = cited from earlier work
[6] = test system: WT-PI5P4Kβ/Pip4K2b−/− cells; experiment: Lysosomal acidification in serum starved WT-PI5P4Kβ/Pip4K2b−/− cells; format: cell-based; settings: MPA treatment for 2 h
[7] = EM image analysis, MMF-treated for 14 days vs untreated group
[8] = Case 1-3, liver transplant recipients treated with MMF
[9] = the 11 patients with elevated LFTs

Row | Structure (SMILES) | degree of mitochondrial pleomorphism (size differences) in the hepatocytes [1, 7] | numbers of lipids (lipid droplets) in the hepatocytes [1, 7] | numbers of mitochondria in the hepatocytes [1, 7] | death during treatment ([1]; MMF treated group, 14 day treatment) | liver histology (H&E) ([1]; MMF-treated for 14 days vs untreated mice) | electron microscopy (EM) finding in transplant liver biopsies [2, 8] | histology of transplant liver biopsies [2, 8] | LFTs after stopping or reducing MMF ([2]; Case 1 and 2) | number and size of macrophages in livers (Kupffer cells) [3] | changes in the other tissues by standard light microscopic analysis ([4]; kidney, ovary, brain, adipose tissues, pancreas, stomach, lung) | Kupffer cell size and numbers ([4]; light microscope 400×, vs vehicle) | IMPDH2 expression levels within the Kupffer cells ([4]; vs MMF-untreated mouse liver) | patients with elevated LFTs ([5]; of 79 renal transplant recipients treated with MMF) [%] | abnormal LFTs after reduction or withdrawal of MMF ([5]; renal transplant recipients with elevated LFTs) | ALT, median and range [5, 9] | AST, median and range [5, 9] | lysosomal acidification [6]
1 | COc1c(C)c2c(c(O)c1C/C=C(\C)CCC(=O)OCCN1CCOCC1)C(=O)OC2 [MMF, mycophenolate mofetil] | significantly increased | significantly increased | significantly increased | Two mice in the MMF treated group died | no recognizable differences | mitochondrial pleomorphism and crystalloid inclusions | only mild nonspecific hepatocellular injury | improved | significant increase | did not show any significant changes | enlarged (hyperplasia/activated) and increased in their numbers | increased | 13.9 | normalized | 222.0 (51-508) U/L | 83.0 (50-123) U/L | –
2 | COc1c(C)c2c(c(O)c1C/C=C(\C)CCC(=O)O)C(=O)OC2 [MPA, mycophenolic acid] | – | – | – | – | – | – | – | – | – | – | – | – | – | – | – | – | suppressed lysosomal acidification
